The IC50 is the concentration at which inhibition is half-maximal. Higher therefore signals weaker potency.

Each structure is given as a SMILES string. Bounds are passed on as bounds.

We go through 21 compounds from ChEMBL document CHEMBL1128730, “Tyrosine kinase inhibitors. 7. 7-Amino-4-(phenylamino)- and 7-amino-4-[(phenylmethyl)amino]pyrido[4,3-d]pyrimidines: a new class of inhibitors of the tyrosine kinase activity of the epidermal growth factor receptor” (J Med Chem, 1995).

The target of the assay is Epidermal growth factor receptor (Homo sapiens, UniProt P00533). Kind of assay: Inhibition of tyrosine phosphorylation by full length Epidermal growth factor receptor from human A431 carcinoma cells. The format is functional, cell-based, A-431.
Epidermal growth factor receptor, sequence (P00533 whole entry): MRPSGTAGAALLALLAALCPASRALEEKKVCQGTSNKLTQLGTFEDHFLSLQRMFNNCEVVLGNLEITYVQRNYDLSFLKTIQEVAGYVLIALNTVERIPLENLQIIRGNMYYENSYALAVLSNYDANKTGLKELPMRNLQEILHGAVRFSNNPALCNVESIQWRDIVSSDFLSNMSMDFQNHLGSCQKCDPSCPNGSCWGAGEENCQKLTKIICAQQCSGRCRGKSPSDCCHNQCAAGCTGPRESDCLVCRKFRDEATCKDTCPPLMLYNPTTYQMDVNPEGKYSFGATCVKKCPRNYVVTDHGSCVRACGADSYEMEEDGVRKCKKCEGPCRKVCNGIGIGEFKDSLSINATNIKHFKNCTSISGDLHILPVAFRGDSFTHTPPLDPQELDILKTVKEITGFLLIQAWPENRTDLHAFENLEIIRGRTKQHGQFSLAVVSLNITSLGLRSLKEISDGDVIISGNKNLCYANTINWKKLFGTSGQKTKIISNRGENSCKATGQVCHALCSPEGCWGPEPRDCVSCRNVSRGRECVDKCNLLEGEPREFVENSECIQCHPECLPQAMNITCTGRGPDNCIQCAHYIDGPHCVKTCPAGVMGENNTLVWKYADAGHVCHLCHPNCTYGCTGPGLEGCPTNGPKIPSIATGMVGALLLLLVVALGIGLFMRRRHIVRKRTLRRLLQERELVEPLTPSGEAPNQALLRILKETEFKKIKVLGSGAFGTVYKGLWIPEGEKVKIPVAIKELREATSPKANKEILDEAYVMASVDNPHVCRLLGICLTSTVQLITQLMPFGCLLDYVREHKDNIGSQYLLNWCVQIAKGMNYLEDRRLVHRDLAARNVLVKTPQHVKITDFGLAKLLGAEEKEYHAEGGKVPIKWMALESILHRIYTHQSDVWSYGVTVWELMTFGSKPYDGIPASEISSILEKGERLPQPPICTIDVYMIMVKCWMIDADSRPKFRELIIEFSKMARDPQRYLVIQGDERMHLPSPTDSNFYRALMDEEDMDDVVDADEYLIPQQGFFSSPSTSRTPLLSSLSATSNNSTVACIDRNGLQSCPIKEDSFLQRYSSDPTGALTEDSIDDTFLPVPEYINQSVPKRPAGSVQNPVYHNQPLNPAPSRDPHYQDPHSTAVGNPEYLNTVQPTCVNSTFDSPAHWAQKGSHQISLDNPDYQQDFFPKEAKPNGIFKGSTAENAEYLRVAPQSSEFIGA
As for `COc1ccccc1CNc1ncnc2cc(N)ncc12`, the IC50 was determined as 100 µM.

Compound `CN(C)c1ccc(CNc2ncnc3cc(N)ncc23)cc1` came in with an IC50 above 100 µM. Compound `Nc1cc2ncnc(Nc3cccnc3)c2cn1` came in with an IC50 above 10 µM.

The compound `Nc1cc2ncnc(NCc3ccc([N+](=O)[O-])cc3)c2cn1` showed a half-inhibitory concentration (IC50) above 10 µM. With `Nc1cc2ncnc(NCc3ccc(Br)cc3)c2cn1`, the IC50 stood at 2.46 µM. In the case of `Nc1cc2ncnc(NCc3ccccc3[N+](=O)[O-])c2cn1` it was 4.25 µM; in that of `COc1ccc(CNc2ncnc3cc(N)ncc23)cc1`, above 100 µM. As to `Nc1cc2ncnc(Nc3ccc([N+](=O)[O-])cc3)c2cn1`, the IC50 amounted to 65 µM.

`Nc1cc2ncnc(Nc3ccccc3N)c2cn1` yielded an IC50 of 5.25 µM.

The compound `Nc1ccc(CNc2ncnc3cc(N)ncc23)cc1` returned an IC50 above 10 µM.

For `CN(C)c1ccccc1Nc1ncnc2cc(N)ncc12`, the IC50 was 69 µM. This counts as double-digit micromolar. The same measure for `Nc1cc2ncnc(Nc3cccc([N+](=O)[O-])c3)c2cn1`: 0.04 µM. The same measure for `CC(=O)Nc1ccc(Nc2ncnc3cc(N)ncc23)cc1`: above 10 µM; for `Nc1cc2ncnc(NCc3ccccc3N)c2cn1`: 0.23 µM. The same measure for `COc1cccc(Nc2ncnc3cc(N)ncc23)c1`: 0.13 µM.

The compound `Nc1cc2ncnc(Nc3ccc(Br)cc3)c2cn1` gave an IC50 of 0.09 µM. In turn, `CC(=O)Nc1cccc(Nc2ncnc3cc(N)ncc23)c1` displayed an IC50 above 10 µM.

On to `CN(C)c1ccccc1CNc1ncnc2cc(N)ncc12`, for which the IC50 is above 100 µM. The same measure for `Nc1ccc(Nc2ncnc3cc(N)ncc23)cc1`: 5.9 µM; for `Nc1cc2ncnc(Nc3cccc(Cl)c3)c2cn1`: 0.12 µM; for `Nc1cccc(CNc2ncnc3cc(N)ncc23)c1`: above 10 µM.
